One may read the IC50 as the concentration at which inhibition is half-maximal.

One assay deals with PI3Kβ (Homo sapiens (Human), UniProt P42338). The experiment in a line: In vitro enzyme inhibition assay (Kinase Glo based enzyme activity assay). Type of assay: biochemical. As to conditions: Test (a). In a few lines: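 ATP depletion by recombinant human PI3Kβ measured with Kinase-Glo luminescence after an 80 min reaction (final 80 μM ATP, 80 μM PIP2, 1% DMSO) in Tris pH 7.4 buffer with CHAPS, DTT and MgCl2, following 20 min enzyme–compound preincubation. Twelve concentrations fitted by non-linear regression for IC50.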
For orientation: In Kinase-Glo more light means more ATP remaining.

The test system of assay [1] is phospho AKT (ser473) in MAD-MB-468 cells. The experiment in a line: Detection of phospho AKT (ser473) in MAD-MB-468 cells. The conditions noted are these: Test (b). Type of assay: cell-based, human. The protocol:
(b) Protocol for Detection of Phospho AKT (Ser473) in MAD-MB-468 Cells
MDA-MB-468 cells (human breast adenocarcinoma ATCC HTB 132) are seeded into Greiner 384 well black flat-bottomed plates by automated cell culture robot (Selec T). Cells can also be maintained manually and seeded into plates using multidrop or Wellmate. Cells seeded at 1500 cell/well in 40 μl of DMEN containing 10% FCS and 1% glutamine. Cell plates are incubated for 18 hours in a 37° C. incubator.
Compounds are dosed onto cells using an Echo acoustic dispenser, which dispenses nl quantities of compound or DMSO. Compounds are dosed in a 12 point concentration range from 30 μM top dose, 28 compounds are dosed on one plate. There are 17 DMSO only positive control wells per plate, and 16 negative control well which have been dosed with a concentration of reference compound that will knockout the pAKT signal.
Plates are incubated at 37° C. for 2 hours, cells are the fixed by the addition of 10 μl of a 3.7% Formaldehyde solution in a fume cupboard using a Wellmate.
After 30 minutes to allow for fixation, the fixative and media are removed and the plates washed with Proclin PBS/A using Tecan PW384 plate washer in a fume cupboard. Wells are blocked and permeabilised with the addition of 40 μl of PBS containing 0.5% Tween20 and 1% marvel using a Wellmate and incubated for 60 minutes at room temperature.
Permeabilisation and blocking buffer removed using Tecan PW384 plate washer, then 20 μl primary antibody solution added using a Wellmate. The primary antibody solution is a 1:500 dilution of Rabbit anti-phospho AKT Ser 473 (Cell signalling technologies catalogue number #3787) in PBS/T containing 1% marvel (dried milk powder) and incubated overnight at 4° C.
Plates are washed using a Tecan PW384 plate washer three times with Phosphate Buffered Saline+0.05% (v/v) Polysorbate20 and Proclin300 (Supelco). 20 μl of secondary antibody solution is then added to each well using a Wellmate and incubated for 1 hour at Room Temp. The secondary antibody solution is a 1:1000 dilution of Alexa Fluor 488 anti-Rabbit (Molecular Probes cat no A11008) diluted in Phosphate Buffered Saline+0.05% (v/v) Polysorbate20 containing 1% marvel. Plates are washed three times as before then 20 μl PBS added to each well and plates sealed with black plate sealer.
The plates are read on an Acumen reader as soon as possible. Using this system IC50 values can be generated and quality of plates determined by control wells. Reference compounds are run each time to monitor assay performance.

[2] abbreviates: approximate value, read-out: IC50 versus PI3Kβ.
[3] abbreviates: human recombinant enzyme, read-out: PI3Kβ inhibition, IC50.
The mark [4] stands for this setting: Homo sapiens, approximate value, read-out: IC50 versus cellular phospho AKT (ser473) in MAD-MB-468 cells.
[5] abbreviates: Homo sapiens, mean IC50 value calculated from a larger number of replicates, read-out: IC50 versus cellular phospho AKT (ser473) in MAD-MB-468 cells (value in brackets).
Where [6] appears, read: approximate value, read-out: IC50 versus cellular phospho AKT (ser473) in MAD-MB-468 cells.

Read-outs that look alike come from different tables or passages of the source.

Sequence of PI3Kβ (P42338 whole entry): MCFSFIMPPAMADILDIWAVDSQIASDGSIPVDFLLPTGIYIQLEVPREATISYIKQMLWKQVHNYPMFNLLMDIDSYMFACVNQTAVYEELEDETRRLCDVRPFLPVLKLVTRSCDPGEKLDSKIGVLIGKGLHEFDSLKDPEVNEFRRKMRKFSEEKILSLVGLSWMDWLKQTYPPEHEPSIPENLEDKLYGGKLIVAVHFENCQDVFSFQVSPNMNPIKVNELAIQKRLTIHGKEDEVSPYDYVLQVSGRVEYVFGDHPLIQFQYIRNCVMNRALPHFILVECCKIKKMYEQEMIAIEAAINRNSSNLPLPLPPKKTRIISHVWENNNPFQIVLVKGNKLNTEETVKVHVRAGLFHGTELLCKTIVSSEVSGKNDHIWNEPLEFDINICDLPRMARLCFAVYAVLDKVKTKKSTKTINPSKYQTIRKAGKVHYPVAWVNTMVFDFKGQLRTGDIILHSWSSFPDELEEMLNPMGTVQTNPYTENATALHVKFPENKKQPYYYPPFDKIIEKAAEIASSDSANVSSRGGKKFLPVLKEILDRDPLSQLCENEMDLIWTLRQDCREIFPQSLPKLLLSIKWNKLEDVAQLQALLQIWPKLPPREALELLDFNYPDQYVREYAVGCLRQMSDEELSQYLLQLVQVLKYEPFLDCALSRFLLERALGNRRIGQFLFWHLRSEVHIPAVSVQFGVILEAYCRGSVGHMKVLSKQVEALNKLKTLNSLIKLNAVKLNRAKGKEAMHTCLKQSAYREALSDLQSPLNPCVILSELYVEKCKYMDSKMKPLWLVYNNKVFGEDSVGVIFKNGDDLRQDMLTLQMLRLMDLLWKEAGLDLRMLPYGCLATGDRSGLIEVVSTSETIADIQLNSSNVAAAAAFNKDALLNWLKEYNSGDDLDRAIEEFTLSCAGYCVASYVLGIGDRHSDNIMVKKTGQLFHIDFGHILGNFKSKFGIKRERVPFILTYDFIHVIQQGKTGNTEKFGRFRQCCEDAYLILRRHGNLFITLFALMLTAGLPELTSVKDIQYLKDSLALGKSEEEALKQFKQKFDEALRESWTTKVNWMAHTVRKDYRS
Sequence of PI3Kβ (P27986 whole entry partner): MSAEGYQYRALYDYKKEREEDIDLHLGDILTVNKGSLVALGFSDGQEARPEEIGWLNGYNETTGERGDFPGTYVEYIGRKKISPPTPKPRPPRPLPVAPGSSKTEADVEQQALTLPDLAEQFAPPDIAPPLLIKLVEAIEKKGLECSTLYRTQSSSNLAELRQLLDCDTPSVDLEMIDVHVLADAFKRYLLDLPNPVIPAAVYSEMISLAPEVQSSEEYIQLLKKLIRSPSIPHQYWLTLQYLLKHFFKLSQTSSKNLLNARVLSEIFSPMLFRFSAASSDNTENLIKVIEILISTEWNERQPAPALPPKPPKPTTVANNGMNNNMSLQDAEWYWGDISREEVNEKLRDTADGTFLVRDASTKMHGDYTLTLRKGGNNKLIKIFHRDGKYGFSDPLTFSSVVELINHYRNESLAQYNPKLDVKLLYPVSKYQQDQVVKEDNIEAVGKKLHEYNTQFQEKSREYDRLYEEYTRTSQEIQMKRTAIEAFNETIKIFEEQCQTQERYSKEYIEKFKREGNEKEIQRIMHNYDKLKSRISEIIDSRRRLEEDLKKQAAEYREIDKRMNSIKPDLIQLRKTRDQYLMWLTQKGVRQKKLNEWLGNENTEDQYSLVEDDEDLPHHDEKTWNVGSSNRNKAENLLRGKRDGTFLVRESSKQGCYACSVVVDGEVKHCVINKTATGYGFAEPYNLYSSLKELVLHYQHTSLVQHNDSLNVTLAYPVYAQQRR

Take `CC(Nc1ccc(F)c(F)c1)c1cc(C(=O)N(C)C)cc2c(=O)cc(N3CCOCC3)oc12` (racemic) [Example 3.03, 8-(1-(3,4-difluorophenylamino)ethyl)-N,N-dimethyl-2-morpholino-4-oxo-4H-chromene-6-carboxamide]: the IC50 is around 9 nM at PI3Kβ (setting [2]), 9 nM at PI3Kβ (setting [3]), around 35 nM in assay [1] (setting [4]) and around 37 nM in assay [1] (setting [5]).
As for `CC(Nc1cccc(Cl)c1F)c1cc(C(=O)N(C)C)cc2c(=O)cc(N3CCOCC3)oc12` (racemic) [Example 3.04, 8-(1-(3-chloro-2-fluorophenylamino)ethyl)-N,N-dimethyl-2-morpholino-4-oxo-4H-chromene-6-carboxamide], the IC50 at PI3Kβ (setting [2]) was around 11 nM; on PI3Kβ (setting [3]) it was 11 nM; in assay [1] (setting [4]) it was around 12 nM.
With `CC(Nc1cc(F)cc(F)c1)c1cc(C(=O)N(C)C)cc2c(=O)cc(N3CCOCC3)oc12` (racemic) [Example 3.06, 8-(1-(3,5-difluorophenylamino)ethyl)-N,N-dimethyl-2-morpholino-4-oxo-4H-chromene-6-carboxamide], the IC50 in assay [1] (setting [4]) is around 9 nM.
Consider `CC(Nc1cc(F)cc(F)c1)c1cc(C(=O)N(C)C)cc2c(=O)cc(N3CCOCC3)oc12` (single isomer, unassigned) [Example 3.06a, 8-(1-(3,5-difluorophenylamino)ethyl)-N,N-dimethyl-2-morpholino-4-oxo-4H-chromene-6-carboxamide], for which the IC50 in assay [1] (setting [6]) was around 13500 nM.
Turning to `CC(Nc1cc(F)cc(F)c1F)c1cc(C(=O)N(C)C)cc2c(=O)cc(N3CCOCC3)oc12` (single isomer, unassigned) [Example 3.13a, N,N-dimethyl-2-morpholino-4-oxo-8-(1-(2,3,5-trifluorophenylamino)ethyl)-4H-chromene-6-carboxamide], the IC50 was around 4500 nM on PI3Kβ (setting [2]), 4540 nM at PI3Kβ (setting [3]) and around 4300 nM in assay [1] (setting [4]).
On to `CC(c1cc(C(=O)N(C)C)cc2c(=O)cc(N3CCOCC3)oc12)N(C)c1cc(F)cc(F)c1` (single isomer, unassigned) [Example 5.0a, 8-(1-((3,5-difluorophenyl)(methyl)amino)ethyl)-N,N-dimethyl-2-morpholino-4-oxo-4H-chromene-6-carboxamide], for which, in assay [1] (setting [4]), the IC50 is around 15 nM.
As for `CC(Nc1cc(F)cc(F)c1)c1cc(C(=O)N(C)C)cc2c(=O)cc(N3CCOCC3)oc12` (single isomer, unassigned; (-)) [Example 3.06b, (−)-8-(1-(3,5-difluorophenylamino)ethyl)-N,N-dimethyl-2-morpholino-4-oxo-4H-chromene-6-carboxamide], the IC50 in assay [1] (setting [5]) is around 3 nM; in assay [1] (setting [6]), around 5 nM.
For `CC(Nc1ccc(F)cc1)c1cc(C(=O)NCCN(C)C)cc2c(=O)cc(N3CCOCC3)oc12` (stereo not drawn) [Example 1.00, N-(2-(dimethylamino)ethyl)-8-(1-(4-fluorophenylamino)ethyl)-2-morpholino-4-oxo-4H-chromene-6-carboxamide], the IC50 is around 2 nM at PI3Kβ (setting [2]), 2 nM at PI3Kβ (setting [3]) and around 9 nM in assay [1] (setting [4]).
The corresponding values for `CC(Nc1cccc(Cl)c1F)c1cc(C(=O)N(C)CCO)cc2c(=O)cc(N3CCOCC3)oc12` (stereo not drawn) [Example 2.05, 8-(1-(3-chloro-2-fluorophenylamino)ethyl)-N-(2-hydroxyethyl)-N-methyl-2-morpholino-4-oxo-4H-chromene-6-carboxamide] are around 5 nM, 5 nM and around 17 nM.
For the compound `CC(c1cc(C(=O)N(C)C)cc2c(=O)cc(N3CCOCC3)oc12)N(C)c1ccc(F)cc1` (stereo not drawn) [Example 3.07, 8-(1-((4-fluorophenyl)(methyl)amino)ethyl)-N,N-dimethyl-2-morpholino-4-oxo-4H-chromene-6-carboxamide], the results for the IC50 (at PI3Kβ (setting [2]); in assay [1] (setting [4])) were around 29 nM and around 580 nM, respectively.
In the case of `CC(Nc1cc(F)c(F)c(F)c1)c1cc(C(=O)N(C)C)cc2c(=O)cc(N3CCOCC3)oc12` (stereo not drawn) [Example 3.11, N,N-dimethyl-2-morpholino-4-oxo-8-(1-(3,4,5-trifluorophenylamino)ethyl)-4H-chromene-6-carboxamide], in assay [1] (setting [4]), the IC50 was around 27 nM.
As for `CC(Nc1cc(F)cc(F)c1)c1cc(C(=O)N2CCCC2)cc2c(=O)cc(N3CCOCC3)oc12` (stereo not drawn) [Example 4.02, 8-(1-(3,5-difluorophenylamino)ethyl)-2-morpholino-6-(pyrrolidine-1-carbonyl)-4H-chromen-4-one], the IC50 at PI3Kβ (setting [2]) is around 4 nM; at PI3Kβ (setting [3]) it was 4 nM; in assay [1] (setting [4]), around 1 nM; in assay [1] (setting [5]), around 2 nM.
Regarding `CC(c1cc(C(=O)N2CCC(O)CC2)cc2c(=O)cc(N3CCO[C@H](C)C3)oc12)N(C)c1cc(F)cc(F)c1` (stereo partly drawn) [Example 10.03, 8-(1-((3,5-difluorophenyl)(methyl)amino)ethyl)-6-(4-hydroxypiperidine-1-carbonyl)-2-((R)-2-methylmorpholino)-4H-chromen-4-one], the IC50 on PI3Kβ (setting [3]) was determined as 9 nM.
On to `CC(Nc1cc(F)cc(F)c1)c1cc(C(=O)N(C)C)cc2c(=O)cc(N3CCOC[C@@H]3C)oc12` (stereo partly drawn) [Example 11.00, 8-(1-(3,5-difluorophenylamino)ethyl)-N,N-dimethyl-2-((S)-3-methylmorpholino)-4-oxo-4H-chromene-6-carboxamide], for which the IC50 on PI3Kβ (setting [3]) was found to be 21 nM.
